From PMC10139033, “Identification of Potential p38γ Inhibitors via In Silico Screening, In Vitro Bioassay and Molecular Dynamics Simulation Studies” (International Journal of Molecular Sciences, 2023)
Read-outs that look alike come from different tables or passages of the source.

Legend:
Huh7 cells = assay: CCK-8 cytotoxicity assay, Huh7; assay type: cell-based, human
Method: (§1) The compounds were tested for HCC cell lines using the Cell Counting Kit-8 (CCK-8) (Absin, Shanghai, China). The human HCC cell lines Huh7 and HepG2 were cultured in high-glucose Dulbecco’s modified Eagle’s medium (DMEM) supplemented with 10% fetal bovine serum (FBS), 1% penicillin, and 1% penicillin/streptomycin at 37 °C with 5% CO2. Huh7 and HepG2 cells were seeded into white 96-well plates at 3 × 10^3 cells per well in 100 μL suspension and pre-incubated overnight. The cells were then treated with different compound concentrations and incubated for 48 h. Control wells just contained cell suspension, while blank wells were added with complete media. The effects on proliferation were determined by the addition of 10 µL CCK-8 reagent, followed by incubation for 1 h. Finally, the absorbance of the reaction was measured at 450 nm using a Victor Nivo Multimode Microplate Reader. Cell viability was calculated as follows: Cell viability%= experimental well absorbance−blank well absorbance /control well absorbance−blank well absorbance ×100%
(§2) All data were collected from triplicate experiments and presented as the mean ± standard deviation of the mean. Data were analyzed using Graph Prism v9.0.0.121. One sample t test was used to calculate the statistical significance of the differences. p < 0.05 was considered statistically significant. The four-parameter dose-response curves and IC50 values were determined by a non-linear regression curve fitting method.

HepG2 cells = assay: CCK-8 cytotoxicity assay, HepG2; assay type: cell-based, human
Method: as §1, §2

p38γ [1] = target: T1, p38γ (Homo sapiens, UniProt P53778); assay: p38γ kinase enzyme system with ADP-Glo kinase assay; assay type: biochemical
T1 construct: purchased Promega
T1 sequence (P53778 1-367): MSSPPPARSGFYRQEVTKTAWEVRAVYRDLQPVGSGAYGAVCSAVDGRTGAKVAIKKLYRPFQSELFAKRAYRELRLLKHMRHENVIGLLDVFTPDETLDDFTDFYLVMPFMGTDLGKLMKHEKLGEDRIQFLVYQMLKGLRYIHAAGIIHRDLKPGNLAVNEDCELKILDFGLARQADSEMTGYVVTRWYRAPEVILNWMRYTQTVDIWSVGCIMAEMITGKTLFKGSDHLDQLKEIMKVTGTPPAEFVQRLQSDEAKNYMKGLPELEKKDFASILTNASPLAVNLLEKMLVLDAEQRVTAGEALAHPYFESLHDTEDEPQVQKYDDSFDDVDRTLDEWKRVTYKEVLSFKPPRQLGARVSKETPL
Method: The inhibitory assay of p38γ was performed using the p38γ kinase enzyme system (Promega, Madison, WI, USA) with the ADP-Glo™ kinase assay kit (Promega, Madison, WI, USA). The kinase reactions were conducted in a total assay volume of 5 μL in a white 384-well plate. The kinase reaction mixture per well was composed using the reaction buffer supplemented with 50μM DTT and contained 50 ng p38γ, 1μg p38 substrate, 50 μM ATP, and the tested compound at the specified concentrations. Positive control wells receive 5% DMSO instead of 1 μL of the compound solution, and negative control wells are without both compound and enzyme in the reaction. After incubation of the plates at room temperature for 60 min, the reaction was stopped with 5 μL of ADP-Glo™ reagent for 40 min. Next, 10 µL of kinase detection reagent was added and incubated for another 30 min to convert the ADP to ATP. The ATP was then detected by measuring the luminescence using a Victor Nivo multimode microplate reader (PerkinElmer, Waltham, MA, USA) in an integration time of 1 s per well. The relative kinase activity was calculated as follows: p38γ kinase activity %=Lumenescence of compound−luminescence of negative control /Lumenescence of positive control−luminescence of negative control ×100%
as §2

p38γ [2] = target: T1, p38γ; parameters: method as in PMID 29758280; details: read-out: experimental IC50 on p38γ; cited from earlier work

reduction of p38γ activity (p38γ [1]; 1 μM)	reduction of p38γ activity (p38γ [1]; 10 μM)	reduction of p38γ activity (p38γ [1]; 100 μM)	IC50 (p38γ [1]; 12-point four-fold dilution from 100 μM, 50 μM ATP)	Compound	effect on viability of Huh7 cells (Huh7 cells; 1 µM, 48 h)	effect on HCC cell growth (Huh7) (Huh7 cells; 10 and 100 µM, 48 h)	IC50 (Huh7 cells; Homo sapiens, Huh-7, 48 h treatment)	effect on viability of HepG2 cells (HepG2 cells; 1 µM, 48 h)	effect on HCC cell growth (HepG2) (HepG2 cells; 10 and 100 µM, 48 h)	IC50 (HepG2 cells; Homo sapiens, HepG2, 48 h treatment)	IC50 (p38γ [2])
72.43%	93.12%	96.18%	0.0168 µM	O=C(C1CC(=O)N(C2CCS(=O)(=O)C2)C1)N1CCC(c2c[nH]c3ncccc23)CC1 (centres unmarked) [compound 2, 1-(1,1-dioxothiolan-3-yl)-4-[4-(1H-pyrrolo [2,3-b]pyridin-3-yl)piperidine-1-carbonyl]pyrrolidin-2-one]	no effect	potent inhibitory effects	11.9 µM	no effect	potent inhibitory effects	19.2 µM	–
–	–	–	–	Cc1ccc(=O)n(-c2ccccc2)c1 [pirfenidone]	–	–	–	–	–	–	> 125 µM
